In ChEMBL document CHEMBL4742385 (2019) one finds T/C and inhibition data, which are given here for 15 compounds.

Experiment [1] deals with SW480. Nature of the experiment: Antitumor activity against human SW480 cells xenografted in BALB/c nude mouse assessed as inhibition of tumor growth at 50 mg/kg, po administered once daily measured after 14 days relative to control. Format: functional. Conditions: time 14 day. On the technique in general: In xenograft studies the graft and the host belong to different species.

The subject of experiment [2] is RPMI-8226. In words: Antiproliferative activity against human RPMI-8226 assessed as inhibition of cell growth at 1 uM after 8 days measured after Celltiter-Glo assay relative to control. Format: functional. The note with it: Homo sapiens, RPMI-8226, 192 h, time 8 day. (ATP-based viability assays read luminescence as a measure of living cells.)
Experiment [3] addresses CDK8/Cyclin C (Homo sapiens) (UniProt P49336+P24863). In words: Inhibition of human CDK8/Cyc C expressed in Sf21 cells at 1 uM measured after 1 hr by fluorescence plate reader relative to control.
Experiment [4] has as its target Cyclin-C/Cyclin-dependent kinase 19 (Homo sapiens) (UniProt Q9BWU1+P24863). In words: Inhibition of humanGST-tagged CDK19/Cyc C expressed in Sf21 cells at 1 uM measured after 1 hr by fluorescence plate reader relative to control.

The T/C is the ratio of treated to control. The term inhibition denotes the drop in the measured response relative to a control, in per cent. On to `O=C(/C=C/c1cnccc1-c1cnn(C2CC2)c1)Nc1ccc(CN2CC(F)(F)C2)cc1`, for which the T/C in experiment [1] is reported as 51%. Besides, the inhibition at 1 µM in experiment [2] was 58%.
On to `O=C(/C=C/c1cncc(F)c1-c1cnn(C2CC2)c1)Nc1ccc(CN2CCOCC2)cc1F`, for which the results for the inhibition in experiment [3] and in experiment [4] were 101% and 96%, respectively. The T/C in experiment [1] turned out to be 36%. For the same compound, the inhibition at 1 µM in experiment [2] came out at 64%.
Consider `Cn1cc(-c2ccncc2/C=C/C(=O)Nc2ccc3c(c2)CN(CC(F)(F)F)CC3)cn1`, for which the values for the inhibition in experiment [3] and in experiment [4] were 102% and 100%, respectively. Besides, the T/C in experiment [1] stood at 43%. Besides, the inhibition at 1 µM in experiment [2] was 59%.
Consider `Cn1cc(-c2c(F)cncc2/C=C/C(=O)Nc2ccc(CN3CC(F)(F)C3)cc2)cn1`, for which the figures for the inhibition in experiment [3] and in experiment [4] were 103% and 102%, respectively. The T/C in experiment [1] amounted to 36%. For the same compound, in experiment [2], the inhibition at 1 µM was found to be 65%.
On to `O=C(/C=C/c1cnccc1-c1cnn(C2CC2)c1)Nc1ccc(CN2CCOCC2)cc1`, for which the inhibition in experiment [3] turned out to be 92%; in experiment [4] it was 102%. The T/C in experiment [1] is 37%. In addition, in experiment [2], the inhibition at 1 µM was 53%.
As for `O=C(/C=C/c1cncc(F)c1-c1cnn(C2CC2)c1)Nc1ccc2c(c1)CN(CC(F)(F)F)C2`, the values for the inhibition in experiment [3] and in experiment [4] were 104% and 100%, respectively. Moreover, the T/C in experiment [1] is recorded as 29%. Further, in experiment [2], the inhibition at 1 µM was found to be 58%.
`Cn1cc(-c2ccncc2/C=C/C(=O)Nc2ccc3c(c2)CN(CC(F)(F)F)C3)cn1`: the figures for the inhibition in experiment [3] and in experiment [4] were 98% and 102%, respectively. Moreover, in experiment [1], the T/C amounted to 31%. Further, the inhibition at 1 µM in experiment [2] stood at 64%.
Turning to `O=C(/C=C/c1cnccc1-c1cnn(C2CC2)c1)Nc1ccc(CN2CCOCC2)cc1F`, the inhibition in experiment [3] and in experiment [4] was 99% each time. Moreover, the T/C in experiment [1] is listed as 36%. The inhibition at 1 µM in experiment [2] is 53%.
As for `O=C(/C=C/c1cnccc1-c1cnn(C2CC2)c1)Nc1ccc(CN2CC(F)C2)cc1`, the inhibition in experiment [3] came out at 107%; in experiment [4], 99%. In addition, in experiment [2], the inhibition at 1 µM is 58%.
Taken in the same sequence, the figures for `COC(C)c1ccc(NC(=O)/C=C/c2cnccc2-c2cnn(C3CC3)c2)cc1` (stereo unspecified) were 102%, 93% and 62%.
With `Cc1cc(NC(=O)/C=C/c2cnccc2-c2cnn(C)c2)ccc1CN1CCOCC1`, the inhibition was 96% in experiment [3] and 98% in experiment [4]. The inhibition at 1 µM in experiment [2] stood at 58%.
In the case of `O=C(/C=C/c1cnccc1-c1cnsc1)Nc1ccc(CN2CCOCC2)cc1`, the values for the inhibition in experiment [3] and in experiment [4] were 90% and 94%, respectively. The inhibition at 1 µM in experiment [2] worked out at 51%.
Taken in the same sequence, the figures for `O=C(/C=C/c1cnccc1-c1cnn(C2CCC2)c1)Nc1ccc(CN2CCOCC2)cc1` were 96%, 96% and 54%.
For the compound `Cn1cc(-c2ccncc2/C=C/C(=O)Nc2ccc3c(c2)OCCO3)cn1`, the values for the inhibition in experiment [3] and in experiment [4] were 100% and 97%, respectively. Further, in experiment [2], the inhibition at 1 µM was 59%.
In the case of `CCn1cc(-c2ccncc2CCC(=O)Nc2ccc(CN3CCOCC3)cc2)cn1`, the inhibition amounted to 90% in experiment [3] and 85% in experiment [4]. Moreover, the inhibition at 1 µM in experiment [2] turned out to be 62%.
